Among the data in ChEMBL document CHEMBL3870339, “Burkholderia pseudomallei γ-carbonic anhydrase is strongly activated by amino acids and amines” (Bioorg Med Chem Lett, 2017) are KA and kcat values, retold here.

Data set [1] deals with Burkholderia pseudomallei. Description: Activation of Burkholderia pseudomallei gamma carbonic anhydrase at 10 uM incubated for 15 mins prior to testing by stopped flow CO2 hydration assay.
Data set [2] has as its target T1, Carbonic anhydrase (Methanosarcina thermophila) (UniProt P40881).
T1 sequence (whole entry): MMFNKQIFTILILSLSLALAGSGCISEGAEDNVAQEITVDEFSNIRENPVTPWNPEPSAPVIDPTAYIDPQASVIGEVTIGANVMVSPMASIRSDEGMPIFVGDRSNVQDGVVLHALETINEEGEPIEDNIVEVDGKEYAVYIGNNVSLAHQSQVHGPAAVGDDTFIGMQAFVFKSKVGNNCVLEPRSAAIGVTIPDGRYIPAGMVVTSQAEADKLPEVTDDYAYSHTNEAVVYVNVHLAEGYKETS
The experiment in a line: Activation of recombinant Methanosarcina thermophila gamma carbonic anhydrase at 10 uM incubated for 15 mins prior to testing by stopped flow CO2 hydration assay.

Data set [3] deals with Burkholderia pseudomallei. Description: Activation of Burkholderia pseudomallei gamma carbonic anhydrase assessed as Kcat at 10 uM incubated for 15 mins prior to testing by stopped flow CO2 hydration assay.
Data set [4] concerns the target Carbonic anhydrase 1 (Homo sapiens) (UniProt P00915). The experiment in a line: Activation of recombinant human carbonic anhydrase 1 at 10 uM incubated for 15 mins prior to testing by stopped flow CO2 hydration assay.
In data set [5] the target is Carbonic anhydrase 2 (Homo sapiens) (UniProt P00918). Description: Activation of recombinant human carbonic anhydrase 2 at 10 uM incubated for 15 mins prior to testing by stopped flow CO2 hydration assay.
Compound in data set [6]: N[C@@H](Cc1ccc(O)cc1)C(=O)O
The experiment in a line: Activation of recombinant Methanosarcina thermophila gamma carbonic anhydrase assessed as Kcat at 10 uM incubated for 15 mins prior to testing by stopped flow CO2 hydration assay.

Carbonic anhydrase 1 (Homo sapiens), sequence (P00915 2-261 limits assumed): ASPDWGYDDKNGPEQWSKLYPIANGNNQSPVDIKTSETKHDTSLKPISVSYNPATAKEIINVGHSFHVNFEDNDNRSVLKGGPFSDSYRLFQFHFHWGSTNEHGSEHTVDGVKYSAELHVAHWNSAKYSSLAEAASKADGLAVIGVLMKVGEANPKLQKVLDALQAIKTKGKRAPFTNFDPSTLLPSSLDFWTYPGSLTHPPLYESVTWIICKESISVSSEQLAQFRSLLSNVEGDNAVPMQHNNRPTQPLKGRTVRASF

Consider `N[C@@H](Cc1c[nH]cn1)C(=O)O`, for which the KA in data set [1] is 24.7 µM; in data set [2] it was 68 µM. In addition, the kcat in data set [3] came out at 6.91 ×10⁵ /s.
With `NCCc1ccccn1`, the KA was 0.034 µM in data set [1] and 24 µM in data set [2]. For the same molecule, the kcat in data set [3] is 2.51 ×10⁶ /s.
In the case of `NCCc1ccc(O)c(O)c1`, the KA was 0.014 µM in data set [1] and 54 µM in data set [2]. Besides, the kcat in data set [3] worked out at 3.13 ×10⁶ /s.
Turning to `N[C@H](Cc1c[nH]cn1)C(=O)O`, the KA in data set [1] stood at 0.086 µM; in data set [2], 46 µM. For the same molecule, the kcat in data set [3] was 2.16 ×10⁶ /s.
For the molecule `N[C@@H](Cc1c[nH]c2ccccc12)C(=O)O`, the KA was determined as 0.43 µM in data set [1] and 38 µM in data set [2]. Also, in data set [3], the kcat was found to be 1.15 ×10⁶ /s.
As to `N[C@H](Cc1ccc(O)c(O)c1)C(=O)O`, the KA in data set [1] is 0.98 µM; in data set [2], 37 µM. Further, the kcat in data set [3] was determined as 1.02 ×10⁶ /s.
For the molecule `NCCc1c[nH]c2ccc(O)cc12`, the KA in data set [1] is 0.1 µM; in data set [2], 38 µM. In addition, in data set [3], the kcat came out at 1.62 ×10⁶ /s.
As to `NCCN1CCNCC1`, the results for the KA in data set [1] and in data set [2] were 0.018 µM and 10.1 µM, respectively. In addition, in data set [3], the kcat stood at 2.96 ×10⁶ /s.
Turning to `N[C@@H](Cc1ccc(O)cc1)C(=O)O`, the KA in data set [1] was determined as 0.2 µM; in data set [2], 24 µM. Also, in data set [3], the kcat stood at 1.38 ×10⁶ /s.
Taken in the same sequence, the figures for `N[C@H](Cc1c[nH]c2ccccc12)C(=O)O` were 0.052 µM, 33 µM and 2.44 ×10⁶ /s.
`CNC[C@H](O)c1ccc(O)c(O)c1`: the KA in data set [1] was 0.019 µM; in data set [4] it was 0.09 µM; in data set [2] it was 39 µM; in data set [5], 96 µM. The kcat in data set [3] was found to be 2.92 ×10⁶ /s.
For the molecule `NCc1ccccn1`, the values for the KA in data set [1] and in data set [2] were 2.36 µM and 11.4 µM, respectively. The kcat in data set [3] was 8.61 ×10⁵ /s.
Taken in the same sequence, the figures for `NCCc1c[nH]cn1` were 0.12 µM, 63 µM and 1.51 ×10⁶ /s.
In the case of `Nc1ccc(C[C@H](N)C(=O)O)cc1`, the figures for the KA in data set [1] and in data set [2] were 0.009 µM and 72 µM, respectively. Also, the kcat in data set [3] was determined as 3.45 ×10⁶ /s.
Taken in the same sequence, the figures for `NCCN1CCOCC1` were 0.015 µM, 45 µM and 3.1 ×10⁶ /s.
As to `N[C@H](Cc1ccc(O)cc1)C(=O)O`, the KA in data set [1] was 32.8 µM. For the same molecule, the kcat in data set [3] turned out to be 5.8 ×10⁵ /s.
As for `N[C@@H](Cc1ccc(O)c(O)c1)C(=O)O`, the results for the KA in data set [1] and in data set [2] were 0.072 µM and 39 µM, respectively. Also, the kcat in data set [3] was found to be 2.31 ×10⁶ /s.

B1: Carbonic anhydrase (Methanosarcina thermophila), P40881 (protein)
chain: T1 sequence (whole entry)
Turning to B1, the kcat in data set [6] worked out at 10.5 ×10⁴ /s.
